Data taken from patent US20050180947A1, “Novel application of vaccination against TNF-alpha” (priority 2002, published 2005).

Legend:
[1] = system: rats with sciatic nerve constriction injury (CCI); conditions: spinal administration prior to CCI; cited from earlier work
[2] = system: Male Sprauge-Dawley rats, partial sciatic nerve ligation (PSNI model); experiment: Thermal hyperalgesia (plantar test, hind paw withdrawal latency) in the partial sciatic nerve ligation (PSNI/PSNL) model; format: in vivo, rat
Source text: Male Sprauge-Dawley rats (200-600 g) were used in all the experiments. The rats were permitted to acclimate 1 week before use in the experiments. The rats were marked with a speed marker on their tails and normally kept in groups of 2-3 per cage pre- and postoperatively. They were housed in clear plastic cages with solid floors covered with sawdust in a normal day/night cycle. Water and food were supplied ad libitum.
The method of partial sciatic nerve injury is developed by Seltzer. Before surgery, the rats were shaved and washed with iodine solution (Iobac vet.) on the surgical area. The left sciatic nerve was exposed at high-thigh level by making a 2-3 cm incision in the skin. The skin was then freed from the connective tissue surrounding the incision in order to assure free movement of the leg after skin stapling. Using blunt dissection through the biceps femoris, the nerve was exposed and carefully freed from surrounding connective tissue at a site near the trochanter just below the point at which the posterior biceps semitendinosus nerve branches off the common sciatic nerve. Using a small pincette slid under the nerve, the nerve was gently lifted up and fixed. An 8/0 Ethilon suture was inserted into the nerve and tightly ligated so that the dorsal 1/3-1/2 of the nerve thickness was trapped in the ligature. The muscle was closed with 2-3 muscle sutures (4/0 vicryl), and the skin closed with 3-4 skin staples.
Plantar test (Ugo Basile) was used in this study to asses the nociceptive response.
The rats were placed in the clear plastic chamber (18 cm×29 cm×12.5 cm) allowed to acclimate to the new environment for about 5 min. Before testing. During this time period the rat was showing exploratory behaviour e.g. standing on its hind leg. When the rat had been acclimated, it stood quietly with occasional bouts of grooming. The radiant heat score beneath the class floor was pointed at the planter hind paw with help from the white sight marks engraved on the top of the I.R vessel.
The infrared (IR) source was then started and the withdrawal latency recorded.
When the rat felt pain and withdrew its paw, the sudden drop in radiation led to a automatic stop of the IR source and the time counter and the withdrawal latency could be determined to the nearest 0.1 sec.
The withdrawal latency was every time tested 5 times with intervals of 5 min. The average of the 5 measurements were then used as the withdrawal latency of the specific rat.
Rats, which were undergoing PSNL, were only tested on the operated left leg. 3 consecutive days before the operation, the withdrawal latency of the left leg was measured using the average of the 3 days as the basic withdrawal latency. The rat was then tested postoperatively for more days.
The difference score, expressed as percent reduction from the basic level to the postoperative level measurement, was used as an index for hyperalgesia: [formula] (pom: postoperative measurement)
Group averages appear with the standard error of the mean. The significance level of difference between means of various groups at certain postoperative times was examined by Student's t-test. The difference between the same group but at different days was examined by ANOVA.

[3] = Soluble expression of TNF-α variants in E. coli; format: physicochemical
Source text: Insertion of the PADRE epitope (SEQ ID NO: 4) into loop 3 in position Gly108-Ala109 is a promising approach to prepare TNF-α variants with a structure closely resembling the native TNF-α molecule. It has been deduced from the TNF-α crystal structure that a TH epitope inserted directly into this position will not have any neighbouring amino acid residues in close proximity to interact with.

[4] = bacterial host cells grown at 37° C.

Clc1cccc(Cl)c1N=C1NCCN1 [clonidine]
delay in onset of thermal hyperestesia compared to control groups [1]: 3 days
difference score in percent between the basic level and the postoperative measurement ([2]; clonidine 0.6 mg/kg once at day 4 postoperatively after testing, day 5): −0.2±8.5%
difference score in percent between the basic level and the postoperative measurement ([2]; clonidine 0.6 mg/kg orally started 2 hours pre PSNI, repeated to day 2, day 2): 2.6±3.1%

O=C1CCC(N2C(=O)c3ccccc3C2=O)C(=O)N1 (stereo not shown) [thalidomide]
difference score in percent between the basic level and the postoperative measurement ([2]; thalidomide 50 mg/kg orally daily from 2 h pre-operation, day 2): 33.3±4.1%
difference score in percent between the basic level and the postoperative measurement ([2]; thalidomide 50 mg/kg orally daily, day 4): 33.9±5.9%
difference score in percent between the basic level and the postoperative measurement ([2]; thalidomide 50 mg/kg orally daily, day 6): 40.5±3.2%
difference score in percent between the basic level and the postoperative measurement ([2]; thalidomide 50 mg/kg orally daily, day 8): 41.3±3.4%
difference score in percent between the basic level and the postoperative measurement ([2]; thalidomide 50 mg/kg orally daily, day 10): 30.6±5.3%
difference score in percent between the basic level and the postoperative measurement ([2]; thalidomide 100 mg/kg orally daily from 2 h pre-operation, day 2): 22.0±7.2%
difference score in percent between the basic level and the postoperative measurement ([2]; thalidomide 100 mg/kg orally daily, day 4): 32.4±6.4%
difference score in percent between the basic level and the postoperative measurement ([2]; thalidomide 100 mg/kg orally daily, day 6): 38.0±4.1%
difference score in percent between the basic level and the postoperative measurement ([2]; thalidomide 100 mg/kg orally daily, day 8): 34.1±5.4%
difference score in percent between the basic level and the postoperative measurement ([2]; thalidomide 100 mg/kg orally daily, day 10): 29.8±4.6%

TNF_T0: three TNFα monomers linked by two GlyGlyGly linkers; SEQ ID NO: 22 in PCT/DK02/00764
expression form in E. coli / bacterial cells [3]: soluble protein

infliximab
difference score (basic level vs postoperative withdrawal latency) versus saline control ([2]; infliximab 5 mg/kg i.v. 2 hours prior to PSNL, days 2, 4, 6 and 7 postoperatively): No significant differences
difference score in percent between the basic level and the postoperative measurement ([2]; infliximab 5 μl (10 mg/ml) icv at days 2, 3 and 4, day 3): 39.2±5.6%
difference score in percent between the basic level and the postoperative measurement ([2]; infliximab 5 μl (10 mg/ml) icv at days 2, 3 and 4, day 4): 43.4±3.8%
difference score in percent between the basic level and the postoperative measurement ([2]; infliximab 5 μl (10 mg/ml) icv at days 2, 3 and 4, day 6): 47.2±4.0%
difference score in percent between the basic level and the postoperative measurement ([2]; infliximab 5 μl (10 mg/ml) icv at days 2, 3 and 4, day 8): 30.6±6.1%
nociceptive threshold compared to the control group ([2]; infliximab 5 μl (10 mg/ml) icv at days 2, 3 and 4 postoperatively): no significant difference
difference score in percent between the basic level and the postoperative measurement ([2]; infliximab 5 μl (10 mg/ml) icv at days 2, 3 and 4 postoperatively, day 2): 41.3±4.4%
difference score in percent between the basic level and the postoperative measurement ([2]; infliximab (10 mg/ml) icv continuously 0.5 μl/h by osmotic pump started day 3 preoperatively, day 2): 34.2±5.4%
difference score in percent between the basic level and the postoperative measurement ([2]; infliximab (10 mg/ml) icv continuously 0.5 μl/h started day 3 preoperatively, day 4): 34.6±5.4%
difference score in percent between the basic level and the postoperative measurement ([2]; infliximab (10 mg/ml) icv continuously 0.5 μl/h started day 3 preoperatively, day 6): 30.3±8.2%
difference score in percent between the basic level and the postoperative measurement ([2]; infliximab (10 mg/ml) icv continuously 0.5 μl/h started day 3 preoperatively, day 8): 27.5±5.2%

B1: TNF34: human TNF-α variant, PADRE epitope inserted into loop 3 at Gly108-Ala109; SEQ ID NO: 18 in PCT/DK02/00764 (protein)
chain: VRSSSRTPSDKPVAHVVANPQAEGQLQWLNRRANALLANGVELRDNQLVVPSEGLYLIYSQVLFKGQGCPSTHVLLTHTISRIAVSYQTKVNLLSAIKSPCQRETPEGAKFVAAWTLKAAAAEAKPWYEPIYLGGVFQLEKGDRLSAEINRPDYLDFAESGQVYFGIIAL
modifications: hTNF with inserted PADRE
fraction expressed as inclusion bodies [3, 4]: 95%
fraction of the expressed protein soluble in E. coli [3, 4]: approximately 5%
yield of soluble protein from the fermentation ([3]; fermentation temperature 25° C.): ~100%
